Counter-ions that a name gives are not always drawn.
Assay: solubility
Format: physicochemical

Row | Compound | solubility in water-immiscible organic solvents (water-immiscible organic solvents) | solubility in alcohol and chloroform (ammonium salt, alcohol and chloroform) | solubility in water (ammonium salt, water at pH 7.0 or higher)
1 | CO[C@@]1(NC(=O)CCC[C@@H](N)C(=O)O)C(=O)N2C(C(=O)O)=C(COC(N)=O)CS[C@@H]21 [Cephamycin C, reference compound] | virtually insoluble |  | 
2 | CC=CC=CC1OC(O)(C(CC)C(=O)NCC=CC=C(C)C(OC)C(C)C2OC(C=CC=CC=C(C)C(=O)c3c(O)ccn(C)c3=O)C(O)C2O)C(O)C(OC2OC(C)C(OC3OC(C)C(OC)C(O)C3OC)C(OC)C2O)C1(C)C (stereo not drawn) [FR-02A as the ammonium salt] |  | soluble | moderately soluble
